#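 Cells were grown in 96-well plates and exposed to each compound for 48 hours at five concentrations; endpoints were interpolated linearly between bracketing concentrations, or set to the highest concentration if not reached. TGI is the concentration that stops growth completely.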
# Columns and labels:
# Experiment in all cases: NCI anticancer screen, dose series, 48 h
# IGROV1 ovarian = tested on: IGROV1 ovarian
# RXF 393 renal = tested on: RXF 393 renal
# DU-145 prostate = tested on: DU-145 prostate
# OVCAR-8 ovarian = tested on: OVCAR-8 ovarian
# UO-31 renal = tested on: UO-31 renal
# MALME-3M melanoma = tested on: MALME-3M melanoma
# LOX IMVI melanoma = tested on: LOX IMVI melanoma
# 786-0 renal = tested on: 786-0 renal
# NCI-H522 lung = tested on: NCI-H522 lung
# U251 CNS = tested on: U251 CNS
# SN12C renal = tested on: SN12C renal
# KM12 colon = tested on: KM12 colon
# HCC-2998 colon = tested on: HCC-2998 colon
# SR leukemia = tested on: SR leukemia
Structure (SMILES),TGI (IGROV1 ovarian) [µM],TGI (RXF 393 renal) [µM],TGI (DU-145 prostate) [µM],TGI (OVCAR-8 ovarian) [µM],TGI (UO-31 renal) [µM],TGI (MALME-3M melanoma) [µM],TGI (LOX IMVI melanoma) [µM],TGI (786-0 renal) [µM],TGI (NCI-H522 lung) [µM],TGI (U251 CNS) [µM],TGI (SN12C renal) [µM],TGI (KM12 colon) [µM],TGI (HCC-2998 colon) [µM],TGI (SR leukemia) [µM]
c1cc(-c2ncc(-c3ccc4c(c3)CCCO4)o2)ccn1,> 100,> 100,> 100,94.9,> 100,50.8,31,> 100,16.7,66.5,> 100,,,
COC(=O)C1OC(Oc2cc(O)c3c(=O)cc(-c4ccc(O)cc4)oc3c2)C(O)C(O)C1O (stereo not given),> 100,> 100,,> 100,> 100,> 100,> 100,,> 100,> 100,> 100,> 100,> 100,
CC(=O)c1sc2c(c1OC(=O)c1cccs1)c(=O)n(-c1ccccc1)c(=S)n2-c1ccccc1,35.4,18.6,57.8,21.1,,6.7,17.2,15.5,6.07,26.7,15.1,59,> 100,
OCC1OC(n2cnc3c2NC=NC[C@H]3O)C(O)C1O (stereo not given in full),> 450,> 450,,> 450,> 450,> 450,> 450,,> 450,> 450,> 450,> 450,> 450,
CC(=O)Oc1ccccc1-c1cc2ccccc2oc1=O,,,> 100,> 100,> 100,> 100,> 100,> 100,> 100,,> 100,> 100,> 100,> 100
CC1=C(Br)C(Br)=C(C)S1=O,> 100,,,> 100,39.3,39.3,27.8,55.9,23.8,26,30.6,36.2,34.9,19.3
Cc1ccc2nc(-c3ccc(N)c(I)c3)sc2c1,,> 100,,> 100,26.2,> 100,,32.7,39.2,98.6,,56.1,26.4,19.8
O=C1C(Cl)C(c2ccccc2)N1n1cnc2ccccc2c1=O (stereo not given),> 100,> 100,,> 100,> 100,> 100,> 100,> 100,> 100,> 100,> 100,> 100,> 100,> 100
N#CSc1nc[nH]c1C(N)=O,> 100,> 100,> 100,> 100,> 100,56.6,> 100,98.8,> 100,> 100,90,> 100,> 100,
CC(C)CC1[C@@H](OCc2ccccc2)COS(=O)N1Cc1ccccc1 (stereo not given in full),> 100,,> 100,> 100,> 100,72.9,> 100,> 100,,> 100,> 100,96.2,,73.1

# — PubChem BioAssay (NCI)
